# Assay results taken from patent US20250332178A1, “METHODS OF TREATING MYCOBACTERIAL INFECTIONS USING TETRACYCLINE COMPOUNDS” (priority 2018, published 2025).
# What was measured:
# M. mucogenium group = experiment: MIC (CLSI broth dilution), RGM isolates; assay type: cell-based
# [1] = test system: rapid-growing mycobacteria (RGM) isolates; experiment: MIC (CLSI broth dilution), all RGM isolates; assay type: cell-based, nontuberculous mycobacteria; details: all 50 RGM isolates
# Mycobacterium chelonae = experiment: MIC by broth microdilution in CAMHB, clinical isolates; assay type: cell-based
# Protocol: (§1) A total of 24 clinical isolates of Mycobacterium abscessus, 22 clinical isolates of Mycobacterium chelonae and 20 clinical isolates of Mycobacterium fortuitum were tested in the study. The study also used the antibiotics tigecycline, doxycycline and amikacin for comparison purposes. […] Amikacin was dissolved in DMSO prior to freezing at −20° C. For susceptibility testing, stock solutions of antibiotic compounds were serially diluted in 50 μL of cation adjusted Mueller-Hinton broth (CAMHB) in polystryrene 96-well round-bottom microtiter plates. To each well, 50 μL of the appropriate mycobacterial cell suspension was added to yield a final concentration of about 1×10^5 CFU/mL. The inoculum used for each isolate was measured by titration in saline with Tween 80 and plating on MH agar. The Mycobacterium abscessus and Mycobacterium fortuitum titer plates were incubated at 37° C. in ambient air for 3-4 days and 5-7 days, respectively. The Mycobacterium chelonae titer plates were incubated at 30° C. in ambient air for 3-5 days. Each isolate was tested at least in duplicate. The MIC was defined as the lowest concentration of antimicrobial agent yielding no visible turbidity.
# Mycobacterium fortuitum = experiment: as above; assay type: cell-based
# Protocol: as §1
# Mycobacterium abscessus = experiment: as above; assay type: cell-based
# Protocol: as §1
# M. immunogenum group = experiment: MIC (CLSI broth dilution), RGM isolates; assay type: cell-based; details: M. immunogenum
# M. chelonae = experiment: MIC (CLSI broth dilution), RGM isolates; assay type: cell-based
# M. smegmatis group = experiment: MIC (CLSI broth dilution), RGM isolates; assay type: cell-based
# M. fortuitum group = experiment: MIC (CLSI broth dilution), RGM isolates; assay type: cell-based
# M. abscessus complex = experiment: MIC (CLSI broth dilution), RGM isolates; assay type: cell-based
# [2] = 24 clinical isolates (tigecycline: subset N=14)
smiles,measurement,setting,value
"NCC[C@H](O)C(=O)N[C@@H]1C[C@H](N)[C@@H](O[C@H]2O[C@H](CN)[C@@H](O)[C@H](O)[C@H]2O)[C@H](O)[C@H]1O[C@H]1O[C@H](CO)[C@@H](O)[C@H](N)[C@H]1O [Amikacin, amikacin]",MIC,"M. mucogenium group; isolate 39, M. mucogenicum group, M. mucogenicum",≤2 µg/mL
same,MIC,"M. mucogenium group; isolate 40, M. mucogenicum group, M. mucogenicum",≤2 µg/mL
same,MIC,"M. mucogenium group; isolate 41, M. mucogenicum group, M. mucogenicum",≤2 µg/mL
same,MIC,"M. mucogenium group; isolate 42, M. mucogenicum group, M. mucogenicum",≤2 µg/mL
same,MIC,"M. mucogenium group; isolate 43, M. mucogenicum group, M. phocaicum",≤2 µg/mL
same,MIC,"M. mucogenium group; isolate 44, M. mucogenicum group, M. phocaicum",≤2 µg/mL
same,MIC,"M. mucogenium group; isolate 45, M. mucogenicum group, M. phocaicum",≤2 µg/mL
same,MIC,"M. mucogenium group; isolate 46, M. mucogenicum group, M. phocaicum",≤2 µg/mL
same,MIC,"M. mucogenium group; isolate 47, M. mucogenicum group, M. phocaicum",≤2 µg/mL
same,MIC,"M. mucogenium group; isolate 48, M. mucogenicum group, M. phocaicum",≤2 µg/mL
same,MIC50,[1],4 µg/mL
same,MIC90,[1],16 µg/mL
same,MIC50,Mycobacterium chelonae; 22 clinical isolates,4 µg/mL
same,MIC90,Mycobacterium chelonae; 22 clinical isolates,8 µg/mL
same,MIC,"Mycobacterium chelonae; isolate No. 1, MC 7323",4 µg/mL
same,MIC,"Mycobacterium chelonae; isolate No. 2, MC 7534",8 µg/mL
same,MIC,"Mycobacterium chelonae; isolate No. 3, MC 7368",16 µg/mL
same,MIC,"Mycobacterium chelonae; isolate No. 4, MC 7514",8 µg/mL
same,MIC,"Mycobacterium chelonae; isolate No. 5, MC 7584",4 µg/mL
same,MIC,"Mycobacterium chelonae; isolate No. 6, MC 7192",4 µg/mL
same,MIC,"Mycobacterium chelonae; isolate No. 7, MC 7466",2 µg/mL
same,MIC,"Mycobacterium chelonae; isolate No. 8, MC 7533",4 µg/mL
same,MIC,"Mycobacterium chelonae; isolate No. 9, MC 7579",4 µg/mL
same,MIC,"Mycobacterium chelonae; isolate No. 10, MC 7614",8 µg/mL
same,MIC,"Mycobacterium chelonae; isolate No. 11, MC 7414",4 µg/mL
same,MIC,"Mycobacterium chelonae; isolate No. 12, MC 7313",2 µg/mL
same,MIC,"Mycobacterium chelonae; isolate No. 13, MC 7281",8 µg/mL
same,MIC,"Mycobacterium chelonae; isolate No. 14, MC 7328",8 µg/mL
same,MIC,"Mycobacterium chelonae; isolate No. 15, MC 7294",8 µg/mL
same,MIC,"Mycobacterium chelonae; isolate No. 16, MC 14-S-03",4 µg/mL
same,MIC,"Mycobacterium chelonae; isolate No. 17, MC 14-S-04",4 µg/mL
same,MIC,"Mycobacterium chelonae; isolate No. 18, MC 14-S-05",8 µg/mL
same,MIC,"Mycobacterium chelonae; isolate No. 19, MC 14-S-06",8 µg/mL
same,MIC,"Mycobacterium chelonae; isolate No. 20, MC 14-S-07",4 µg/mL
same,MIC,"Mycobacterium chelonae; isolate No. 21, MC 35757",2 µg/mL
same,MIC,"Mycobacterium chelonae; isolate No. 22, MC 7302",4 µg/mL
same,MIC50,Mycobacterium fortuitum; 20 clinical isolates,0.5 µg/mL
same,MIC90,Mycobacterium fortuitum; 20 clinical isolates,4 µg/mL
same,MIC,"Mycobacterium fortuitum; isolate No. 1, 3349",8 µg/mL
same,MIC,"Mycobacterium fortuitum; isolate No. 2, 3499",0.25 µg/mL
same,MIC,"Mycobacterium fortuitum; isolate No. 3, 2797",2 µg/mL
same,MIC,"Mycobacterium fortuitum; isolate No. 4, 32",1 µg/mL
same,MIC,"Mycobacterium fortuitum; isolate No. 5, 33",2 µg/mL
same,MIC,"Mycobacterium fortuitum; isolate No. 6, 3489",1 µg/mL
same,MIC,"Mycobacterium fortuitum; isolate No. 7, 3491",1 µg/mL
same,MIC,"Mycobacterium fortuitum; isolate No. 8, 54",0.5 µg/mL
same,MIC,"Mycobacterium fortuitum; isolate No. 9, 38",0.5 µg/mL
same,MIC,"Mycobacterium fortuitum; isolate No. 10, 36",1 µg/mL
same,MIC,"Mycobacterium fortuitum; isolate No. 11, 3480",0.5 µg/mL
same,MIC,"Mycobacterium fortuitum; isolate No. 12, 3126",0.5 µg/mL
same,MIC,"Mycobacterium fortuitum; isolate No. 13, 3579",1 µg/mL
same,MIC,"Mycobacterium fortuitum; isolate No. 14, 7484",16 µg/mL
same,MIC,"Mycobacterium fortuitum; isolate No. 15, 3488",0.5 µg/mL
same,MIC,"Mycobacterium fortuitum; isolate No. 16, 3276",0.5 µg/mL
same,MIC,"Mycobacterium fortuitum; isolate No. 17, 3442",0.5 µg/mL
same,MIC,"Mycobacterium fortuitum; isolate No. 18, 3316",0.125 µg/mL
same,MIC,"Mycobacterium fortuitum; isolate No. 19, 3490",0.5 µg/mL
same,MIC,"Mycobacterium fortuitum; isolate No. 20, 2491",4 µg/mL
same,MIC50,Mycobacterium abscessus; [2],2 µg/mL
same,MIC90,Mycobacterium abscessus; [2],8 µg/mL
same,MIC,"Mycobacterium abscessus; isolate No. 1, BB2",8 µg/mL
same,MIC,"Mycobacterium abscessus; isolate No. 2, BB4",8 µg/mL
same,MIC,"Mycobacterium abscessus; isolate No. 3, 5922",2 µg/mL
same,MIC,"Mycobacterium abscessus; isolate No. 4, BB3",2 µg/mL
same,MIC,"Mycobacterium abscessus; isolate No. 5, BB6",4 µg/mL
same,MIC,"Mycobacterium abscessus; isolate No. 6, 5908",2 µg/mL
same,MIC,"Mycobacterium abscessus; isolate No. 7, BB7",0.5 µg/mL
same,MIC,"Mycobacterium abscessus; isolate No. 8, 6031",0.5 µg/mL
same,MIC,"Mycobacterium abscessus; isolate No. 9, 5785",1 µg/mL
same,MIC,"Mycobacterium abscessus; isolate No. 10, BB8",2 µg/mL
same,MIC,"Mycobacterium abscessus; isolate No. 11, 6111",2 µg/mL
same,MIC,"Mycobacterium abscessus; isolate No. 12, 6005",4 µg/mL
same,MIC,"Mycobacterium abscessus; isolate No. 13, 5605",2 µg/mL
same,MIC,"Mycobacterium abscessus; isolate No. 14, 5931",0.5 µg/mL
same,MIC,"Mycobacterium abscessus; isolate No. 15, BB1",2 µg/mL
same,MIC,"Mycobacterium abscessus; isolate No. 16, BB5",8 µg/mL
same,MIC,"Mycobacterium abscessus; isolate No. 17, 5812",4 µg/mL
same,MIC,"Mycobacterium abscessus; isolate No. 18, 5901",2 µg/mL
same,MIC,"Mycobacterium abscessus; isolate No. 19, 5960",1 µg/mL
same,MIC,"Mycobacterium abscessus; isolate No. 20, 6142",4 µg/mL
same,MIC,"Mycobacterium abscessus; isolate No. 21, 5922",2 µg/mL
same,MIC,"Mycobacterium abscessus; isolate No. 22, LT 949",8 µg/mL
same,MIC,"Mycobacterium abscessus; isolate No. 23, 6025",8 µg/mL
same,MIC,"Mycobacterium abscessus; isolate No. 24, 6153",8 µg/mL
same,MIC,"M. immunogenum group; isolate 35, M. immunogenum group",16 µg/mL
same,MIC,"M. immunogenum group; isolate 36, M. immunogenum group",4 µg/mL
same,MIC,"M. immunogenum group; isolate 37, M. immunogenum group",8 µg/mL
same,MIC,"M. immunogenum group; isolate 38, M. immunogenum group",8 µg/mL
same,MIC,"M. chelonae; isolate 18, M. chelonae",8 µg/mL
same,MIC,"M. chelonae; isolate 19, M. chelonae",16 µg/mL
same,MIC,"M. chelonae; isolate 20, M. chelonae",16 µg/mL
same,MIC,"M. chelonae; isolate 21, M. chelonae",16 µg/mL
same,MIC,"M. chelonae; isolate 22, M. chelonae",16 µg/mL
same,MIC,"M. smegmatis group; isolate 49, M. smegmatis group, M. goodii",≤2 µg/mL
same,MIC,"M. smegmatis group; isolate 50, M. smegmatis group, M. wolinskyi",≤2 µg/mL
same,MIC,"M. fortuitum group; isolate 23, M. fortuitum group, M. fortuitum",≤2 µg/mL
same,MIC,"M. fortuitum group; isolate 24, M. fortuitum group, M. fortuitum",≤2 µg/mL
same,MIC,"M. fortuitum group; isolate 25, M. fortuitum group, M. fortuitum",≤2 µg/mL
same,MIC,"M. fortuitum group; isolate 26, M. fortuitum group, M. porcinum",≤2 µg/mL
same,MIC,"M. fortuitum group; isolate 27, M. fortuitum group, M. porcinum",≤2 µg/mL
same,MIC,"M. fortuitum group; isolate 28, M. fortuitum group, M. porcinum/M. boenickei",≤2 µg/mL
same,MIC,"M. fortuitum group; isolate 29, M. fortuitum group, M. porcinum/M. boenickei",≤2 µg/mL
same,MIC,"M. fortuitum group; isolate 30, M. fortuitum group, M. porcinum/M. boenickei",≤2 µg/mL
same,MIC,"M. fortuitum group; isolate 31, M. fortuitum group, M. senegalense",≤2 µg/mL
same,MIC,"M. fortuitum group; isolate 32, M. fortuitum group, M. senegalense",≤2 µg/mL
same,MIC,"M. fortuitum group; isolate 33, M. fortuitum group, M. senegalense",≤2 µg/mL
same,MIC,"M. fortuitum group; isolate 34, M. fortuitum group, M. senegalense",≤2 µg/mL
same,MIC,"M. abscessus complex; isolate 1, M. abscessus complex, erm gene type MAB30",8 µg/mL
same,MIC,"M. abscessus complex; isolate 2, M. abscessus complex, erm gene type MAB30",4 µg/mL
same,MIC,"M. abscessus complex; isolate 3, M. abscessus complex, erm gene type MAB30",16 µg/mL
same,MIC,"M. abscessus complex; isolate 4, M. abscessus complex, erm gene type massiliense",8 µg/mL
same,MIC,"M. abscessus complex; isolate 5, M. abscessus complex, erm gene type massiliense/subsp. abs hybrid",32 µg/mL
same,MIC,"M. abscessus complex; isolate 6, M. abscessus complex, erm gene type Type 1 abscessus",8 µg/mL
same,MIC,"M. abscessus complex; isolate 7, M. abscessus complex, erm gene type Type 1 abscessus",8 µg/mL
same,MIC,"M. abscessus complex; isolate 8, M. abscessus complex, erm gene type Type 1 abscessus",8 µg/mL
same,MIC,"M. abscessus complex; isolate 9, M. abscessus complex, erm gene type Type 1 abscessus",>64 µg/mL
same,MIC,"M. abscessus complex; isolate 10, M. abscessus complex, erm gene type Type 1 abscessus",16 µg/mL
same,MIC,"M. abscessus complex; isolate 11, M. abscessus complex, erm gene type Type 6 abscessus",16 µg/mL
same,MIC,"M. abscessus complex; isolate 12, M. abscessus complex, erm gene type Type 6 abscessus",8 µg/mL
same,MIC,"M. abscessus complex; isolate 13, M. abscessus complex, erm gene type Type 6 abscessus",4 µg/mL
same,MIC,"M. abscessus complex; isolate 14, M. abscessus complex, erm gene type Type 6 abscessus",16 µg/mL
same,MIC,"M. abscessus complex; isolate 15, M. abscessus complex, erm gene type Type 7 abscessus",8 µg/mL
same,MIC,"M. abscessus complex; isolate 16, M. abscessus complex, erm gene type Type 7 abscessus",16 µg/mL
same,MIC,"M. abscessus complex; isolate 17, M. abscessus complex, erm gene type Type 8 abscessus",4 µg/mL
